Each block holds one compound with its values, some of them ahead of it. Calls of active or inactive are those of the source.
What was measured:
[1] = target: Voltage-gated N-type calcium channel alpha-1B subunit/Amyloid beta A4 precursor protein-binding family A member 1 (Homo sapiens, UniProt Q00975+Q02410); type: protein assay
[2] = target: DNA dC->dU-editing enzyme APOBEC-3G (Homo sapiens, UniProt Q9HC16); assay: Dose Response confirmation of small molecule APOBEC3G DNA Deaminase Inhibitors via a fluorescence-based single-stranded DNA deaminase assay. [Related pubchem assays (depositor defined):AID493012, AID493028]; type: functional
Caspase-3 = target: T1, Caspase-3 (Homo sapiens, UniProt P42574); type: functional;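 also: Dose-response selectivity test against caspase-3 for candidate inhibitors of sentrin-specific proteases (SENPs)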
T1 sequence (P42574 whole entry): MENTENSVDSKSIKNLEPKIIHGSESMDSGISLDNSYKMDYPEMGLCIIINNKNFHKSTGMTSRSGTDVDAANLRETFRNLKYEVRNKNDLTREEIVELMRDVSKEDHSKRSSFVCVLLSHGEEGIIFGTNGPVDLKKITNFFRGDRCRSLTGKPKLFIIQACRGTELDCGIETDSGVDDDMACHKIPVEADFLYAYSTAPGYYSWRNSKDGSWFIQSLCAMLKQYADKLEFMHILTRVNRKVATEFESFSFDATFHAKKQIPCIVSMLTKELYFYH

Genome polyprotein = Genome polyprotein (dengue virus type 2, UniProt P29990); assay: flavivirus cap methylation enzyme inhibition – biochemical, confirmation dose response, primary screen (AID 588689); type: functional
[3] = target: Serine/threonine-protein phosphatase PP1-alpha catalytic subunit (Homo sapiens, UniProt P62136); assay: inhibition of protein phosphatase 1 activity – biochemical, fluorescence, dose response (AID 2403);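 also: phosphatase turnover of OMFP into fluorescent 3-O-methylfluorescein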
[4] = target: Ribosomal protein S6 kinase alpha-3 (Homo sapiens, UniProt P51812); type: functional;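 also: measured within a kinome-wide profiling panel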
[5] = target: Dual specificity mitogen-activated protein kinase kinase 1 (Homo sapiens, UniProt Q02750); assay: Navigating the Kinome. Panel member name: MAP2K1; type: functional
[6] = target: 5'-AMP-activated protein kinase catalytic subunit alpha-1 (Homo sapiens, UniProt Q13131); type: functional
[7] = target: Mitogen-activated protein kinase 8 (Homo sapiens, UniProt P45983); type: functional;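 also: value comes from one member of a kinome-wide kinase profiling panel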
[8] = target: Serine/threonine-protein kinase pim-1 (Homo sapiens, UniProt P11309); type: functional
[9] = target: Tyrosine-protein kinase BTK (Homo sapiens, UniProt Q06187); type: functional
[10] = target: Serine/threonine-protein kinase PAK 4 (Homo sapiens, UniProt O96013); type: functional;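 also: value obtained within a kinome profiling panel in which PAK4 was one of the panel members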
[11] = target: Tyrosine-protein kinase JAK3 (Homo sapiens, UniProt P52333); type: functional
[12] = target: Hepatocyte growth factor receptor (Homo sapiens, UniProt P08581); type: functional;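 also: kinase panel profiling across the kinome, with MET as the panel member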
[13] = target: Receptor-type tyrosine-protein kinase FLT3 (Homo sapiens, UniProt P36888); type: functional;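 also: FLT3 was tested as one member of a kinome-wide kinase panel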
[14] = target: Cyclin-dependent kinase 5 (Homo sapiens, UniProt Q00535); type: functional;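 also: CDK5 measured as one member of a kinase profiling panel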
[15] = target: Tyrosine-protein kinase Fyn (Homo sapiens, UniProt P06241); type: functional
[16] = target: Cyclin-dependent kinase 7 (Homo sapiens, UniProt P50613); type: functional;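 also: value comes from a kinome-wide kinase profiling panel in which CDK7 is one member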
[17] = target: cAMP-dependent protein kinase catalytic subunit alpha (Homo sapiens, UniProt P17612); type: functional
[18] = target: Inhibitor of nuclear factor kappa-B kinase subunit epsilon (Homo sapiens, UniProt Q14164); assay: Navigating the Kinome. Panel member name: IKBKE; type: functional
[19] = target: Calcium/calmodulin-dependent protein kinase type II subunit alpha (Homo sapiens, UniProt Q9UQM7); assay: Navigating the Kinome. Panel member name: CAMK2A; type: functional
[20] = target: T2, RNA-binding protein pos-1 (Caenorhabditis elegans, UniProt G5EF15); assay: disruptors of C. elegans POS-1 RNA interaction – biochemical, fluorescence polarization, dose response (AID 1964);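 also: purified POS-1 fused to maltose binding protein made in E. coli; potency of compounds blocking POS-1 binding to fluorescent RNA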
T2 sequence (G5EF15 whole entry): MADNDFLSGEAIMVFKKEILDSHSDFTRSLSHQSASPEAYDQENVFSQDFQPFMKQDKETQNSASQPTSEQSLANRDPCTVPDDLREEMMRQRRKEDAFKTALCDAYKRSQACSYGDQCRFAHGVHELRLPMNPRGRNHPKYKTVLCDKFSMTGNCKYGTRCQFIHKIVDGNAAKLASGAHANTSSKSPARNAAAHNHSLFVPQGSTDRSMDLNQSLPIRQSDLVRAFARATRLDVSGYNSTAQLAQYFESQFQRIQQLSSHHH

[21] = target: Intestinal-type alkaline phosphatase (Homo sapiens, UniProt P09923); assay: activation of human intestinal alkaline phosphatase – biochemical, dose response (AID 488873); type: functional
[22] = target: Intestinal-type alkaline phosphatase (Mus musculus, UniProt P24822); assay: mouse intestinal alkaline phosphatase activators, dose response, biochemical, luminescence, uHTS hits (AID 488783); type: functional

Ribosomal protein S6 kinase alpha-3, sequence (P51812 whole entry): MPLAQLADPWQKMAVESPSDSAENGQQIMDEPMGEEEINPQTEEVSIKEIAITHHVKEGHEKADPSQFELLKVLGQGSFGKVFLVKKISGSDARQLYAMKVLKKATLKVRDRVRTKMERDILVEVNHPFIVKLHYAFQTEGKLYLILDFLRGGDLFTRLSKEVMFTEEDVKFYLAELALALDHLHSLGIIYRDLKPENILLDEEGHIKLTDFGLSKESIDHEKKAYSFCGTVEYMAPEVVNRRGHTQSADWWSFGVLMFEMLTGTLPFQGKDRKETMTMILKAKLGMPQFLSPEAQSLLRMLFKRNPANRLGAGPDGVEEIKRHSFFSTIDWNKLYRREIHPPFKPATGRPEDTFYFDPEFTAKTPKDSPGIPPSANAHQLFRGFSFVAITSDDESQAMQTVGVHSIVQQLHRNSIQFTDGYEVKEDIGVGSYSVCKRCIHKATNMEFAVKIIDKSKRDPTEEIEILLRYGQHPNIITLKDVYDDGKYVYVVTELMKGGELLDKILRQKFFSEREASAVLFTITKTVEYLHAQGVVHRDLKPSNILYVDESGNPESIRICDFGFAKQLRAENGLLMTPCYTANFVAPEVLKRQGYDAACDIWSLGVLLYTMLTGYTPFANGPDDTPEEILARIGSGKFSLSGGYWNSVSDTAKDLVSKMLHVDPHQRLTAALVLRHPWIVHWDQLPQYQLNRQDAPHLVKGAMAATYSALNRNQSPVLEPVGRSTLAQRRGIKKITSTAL
Intestinal-type alkaline phosphatase (Homo sapiens, UniProt P09923), sequence (P09923 whole entry): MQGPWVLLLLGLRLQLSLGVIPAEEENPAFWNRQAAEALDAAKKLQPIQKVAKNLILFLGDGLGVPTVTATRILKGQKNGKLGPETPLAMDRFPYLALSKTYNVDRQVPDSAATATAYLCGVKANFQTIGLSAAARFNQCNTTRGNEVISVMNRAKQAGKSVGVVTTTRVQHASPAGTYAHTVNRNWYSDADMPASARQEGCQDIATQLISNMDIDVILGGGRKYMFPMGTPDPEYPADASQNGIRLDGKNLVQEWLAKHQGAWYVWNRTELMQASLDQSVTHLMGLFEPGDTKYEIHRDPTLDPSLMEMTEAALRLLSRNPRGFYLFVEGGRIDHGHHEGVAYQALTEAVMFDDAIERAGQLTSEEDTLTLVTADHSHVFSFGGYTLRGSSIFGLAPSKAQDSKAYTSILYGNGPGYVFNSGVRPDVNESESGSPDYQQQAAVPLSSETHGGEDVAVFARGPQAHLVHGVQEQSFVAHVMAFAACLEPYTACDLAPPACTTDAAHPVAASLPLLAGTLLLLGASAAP
5'-AMP-activated protein kinase catalytic subunit alpha-1, sequence (Q13131 whole entry): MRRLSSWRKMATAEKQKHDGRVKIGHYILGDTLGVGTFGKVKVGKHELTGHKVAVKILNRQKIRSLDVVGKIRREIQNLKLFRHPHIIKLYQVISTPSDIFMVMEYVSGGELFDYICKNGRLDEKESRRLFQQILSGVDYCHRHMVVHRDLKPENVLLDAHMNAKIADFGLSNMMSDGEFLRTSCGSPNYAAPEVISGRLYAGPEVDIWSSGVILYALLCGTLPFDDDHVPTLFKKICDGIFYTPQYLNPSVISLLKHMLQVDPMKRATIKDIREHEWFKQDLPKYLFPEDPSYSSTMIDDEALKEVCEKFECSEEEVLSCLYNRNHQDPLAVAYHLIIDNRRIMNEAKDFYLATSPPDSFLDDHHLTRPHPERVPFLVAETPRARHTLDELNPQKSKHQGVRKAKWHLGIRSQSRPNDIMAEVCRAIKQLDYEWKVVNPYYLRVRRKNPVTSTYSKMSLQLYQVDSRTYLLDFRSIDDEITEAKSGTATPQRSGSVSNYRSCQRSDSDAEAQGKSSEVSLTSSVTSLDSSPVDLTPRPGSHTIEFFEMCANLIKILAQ
Mitogen-activated protein kinase 8, sequence (P45983 whole entry): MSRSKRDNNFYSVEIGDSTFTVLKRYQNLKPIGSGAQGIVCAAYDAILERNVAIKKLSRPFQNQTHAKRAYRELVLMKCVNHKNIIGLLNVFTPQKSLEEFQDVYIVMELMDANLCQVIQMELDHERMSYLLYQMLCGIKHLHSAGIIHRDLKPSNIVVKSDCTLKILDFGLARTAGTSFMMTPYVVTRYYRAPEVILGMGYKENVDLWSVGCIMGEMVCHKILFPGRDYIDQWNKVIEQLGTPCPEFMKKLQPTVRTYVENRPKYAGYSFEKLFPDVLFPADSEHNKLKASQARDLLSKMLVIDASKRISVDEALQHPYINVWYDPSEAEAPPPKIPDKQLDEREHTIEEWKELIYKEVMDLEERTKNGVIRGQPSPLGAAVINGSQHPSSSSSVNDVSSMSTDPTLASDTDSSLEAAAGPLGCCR
Inhibitor of nuclear factor kappa-B kinase subunit epsilon, sequence (Q14164 whole entry): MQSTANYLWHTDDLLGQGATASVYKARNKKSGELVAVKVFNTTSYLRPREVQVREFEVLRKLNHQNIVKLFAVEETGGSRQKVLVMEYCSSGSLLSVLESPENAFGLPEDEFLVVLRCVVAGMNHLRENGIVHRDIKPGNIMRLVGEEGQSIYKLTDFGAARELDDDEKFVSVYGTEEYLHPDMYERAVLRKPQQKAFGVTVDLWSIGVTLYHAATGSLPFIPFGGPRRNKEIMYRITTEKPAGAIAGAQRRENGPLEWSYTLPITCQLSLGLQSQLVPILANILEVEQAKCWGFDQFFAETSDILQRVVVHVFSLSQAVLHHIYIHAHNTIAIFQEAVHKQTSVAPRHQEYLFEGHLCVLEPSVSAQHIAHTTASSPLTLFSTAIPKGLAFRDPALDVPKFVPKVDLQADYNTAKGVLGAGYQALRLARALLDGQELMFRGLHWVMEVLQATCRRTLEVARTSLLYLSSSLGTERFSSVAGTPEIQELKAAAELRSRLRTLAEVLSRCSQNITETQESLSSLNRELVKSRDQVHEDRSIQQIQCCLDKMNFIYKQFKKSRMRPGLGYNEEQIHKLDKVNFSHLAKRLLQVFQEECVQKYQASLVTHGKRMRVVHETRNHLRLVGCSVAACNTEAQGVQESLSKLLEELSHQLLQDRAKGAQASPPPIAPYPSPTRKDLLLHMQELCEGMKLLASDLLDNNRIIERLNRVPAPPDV
Serine/threonine-protein kinase pim-1, sequence (P11309 whole entry): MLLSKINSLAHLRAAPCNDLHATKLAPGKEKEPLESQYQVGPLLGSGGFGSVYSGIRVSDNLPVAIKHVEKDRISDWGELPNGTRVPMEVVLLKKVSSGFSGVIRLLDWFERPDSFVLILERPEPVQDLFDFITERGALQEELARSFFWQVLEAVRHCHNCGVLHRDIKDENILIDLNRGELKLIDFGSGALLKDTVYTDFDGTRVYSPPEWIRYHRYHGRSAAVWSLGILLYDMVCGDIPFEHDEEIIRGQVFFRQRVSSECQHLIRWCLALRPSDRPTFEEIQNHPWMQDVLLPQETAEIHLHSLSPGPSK
Receptor-type tyrosine-protein kinase FLT3, sequence (P36888 whole entry): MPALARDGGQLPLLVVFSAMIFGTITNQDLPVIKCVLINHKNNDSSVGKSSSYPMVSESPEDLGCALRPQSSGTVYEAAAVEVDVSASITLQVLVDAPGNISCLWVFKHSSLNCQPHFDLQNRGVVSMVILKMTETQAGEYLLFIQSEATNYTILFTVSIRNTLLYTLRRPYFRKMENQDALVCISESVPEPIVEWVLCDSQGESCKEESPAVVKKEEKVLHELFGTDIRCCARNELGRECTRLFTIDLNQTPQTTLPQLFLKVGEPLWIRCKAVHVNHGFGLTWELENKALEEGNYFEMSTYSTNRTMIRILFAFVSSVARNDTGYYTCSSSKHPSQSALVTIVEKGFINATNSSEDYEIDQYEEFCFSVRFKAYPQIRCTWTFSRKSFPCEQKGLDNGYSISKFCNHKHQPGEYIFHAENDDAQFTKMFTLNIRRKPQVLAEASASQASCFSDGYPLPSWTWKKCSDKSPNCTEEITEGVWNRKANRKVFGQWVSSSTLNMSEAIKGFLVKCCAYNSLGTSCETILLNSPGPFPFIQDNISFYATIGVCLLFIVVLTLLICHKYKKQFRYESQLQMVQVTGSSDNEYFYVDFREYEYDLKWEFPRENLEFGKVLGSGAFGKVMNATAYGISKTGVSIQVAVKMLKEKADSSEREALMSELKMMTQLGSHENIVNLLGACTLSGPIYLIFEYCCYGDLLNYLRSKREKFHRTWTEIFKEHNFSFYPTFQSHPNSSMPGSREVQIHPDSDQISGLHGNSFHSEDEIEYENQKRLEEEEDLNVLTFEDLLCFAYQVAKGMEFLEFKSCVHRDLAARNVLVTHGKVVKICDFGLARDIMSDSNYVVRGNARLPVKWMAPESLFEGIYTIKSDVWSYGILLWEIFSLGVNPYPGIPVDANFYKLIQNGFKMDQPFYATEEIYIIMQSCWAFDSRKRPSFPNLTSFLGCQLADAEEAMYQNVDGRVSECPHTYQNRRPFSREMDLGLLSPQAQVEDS
Serine/threonine-protein phosphatase PP1-alpha catalytic subunit, sequence (P62136 whole entry): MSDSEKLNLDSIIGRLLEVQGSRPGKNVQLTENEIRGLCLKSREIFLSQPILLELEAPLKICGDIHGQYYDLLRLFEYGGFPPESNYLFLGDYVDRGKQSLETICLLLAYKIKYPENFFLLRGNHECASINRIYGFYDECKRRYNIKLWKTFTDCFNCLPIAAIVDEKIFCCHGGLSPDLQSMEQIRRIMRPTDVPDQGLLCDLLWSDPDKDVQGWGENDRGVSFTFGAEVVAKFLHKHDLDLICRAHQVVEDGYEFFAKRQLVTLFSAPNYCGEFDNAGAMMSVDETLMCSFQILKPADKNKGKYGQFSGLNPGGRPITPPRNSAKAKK
Cyclin-dependent kinase 7, sequence (P50613 whole entry): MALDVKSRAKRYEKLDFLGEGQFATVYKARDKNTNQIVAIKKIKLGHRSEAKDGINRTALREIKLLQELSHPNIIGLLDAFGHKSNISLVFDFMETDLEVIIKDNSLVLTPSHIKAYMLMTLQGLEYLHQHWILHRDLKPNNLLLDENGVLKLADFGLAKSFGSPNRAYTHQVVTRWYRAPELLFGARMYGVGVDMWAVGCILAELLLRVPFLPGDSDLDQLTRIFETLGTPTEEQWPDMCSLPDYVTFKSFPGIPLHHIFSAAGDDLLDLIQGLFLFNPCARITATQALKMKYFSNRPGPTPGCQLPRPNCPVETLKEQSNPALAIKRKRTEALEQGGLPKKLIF

Compound: CC(=O)N(C1=C(Cl)C(=O)c2ccccc2C1=O)c1ccc(C(=O)O)cc1
IC50 [1]: 0.225 µM (active) | IC50 [2]: 8.03 µM (active) | IC50 (Caspase-3): 14.2 µM (active) | IC50 (Genome polyprotein): 5.89 µM (active)

Compound: CC1(C)C=C2C(=NN(c3ccccc3)C(N)=C2C#N)CO1
IC50 [3]: 55.8 µM (not active)

Ki [4]: > 3.98 µM (inactive) | Ki [5]: > 3.16 µM (inactive) | Ki [6]: 3.16 µM (active) | Ki [7]: > 5.01 µM (inactive) | Ki [8]: > 6.31 µM (inactive) | Ki [9]: > 6.31 µM (inactive) | Ki [10]: > 5.01 µM (inactive) | Ki [11]: > 5.01 µM (inactive) | Ki [12]: > 2.51 µM (inactive) | Ki [13]: > 3.16 µM (inactive) | Ki [14]: 0.00794 µM (active) | Ki [15]: > 6.31 µM (inactive) | Ki [16]: 0.158 µM (active) | Ki [17]: > 1.26 µM (inactive) | Ki [18]: > 3.16 µM (inactive) | Ki [19]: > 7.94 µM (inactive)
Compound: Cc1ccc(-c2cc3nc(Br)cnc3[nH]2)cc1

Compound: O=C1C=C(O)c2c(O)cc(O)c(O)c2C1=O
EC50 [20]: 1.07 µM (inconclusive) | EC50 [21]: > 100 µM (inactive) | EC50 [22]: 9.93 µM (active)
